From patent publication US10035760B2, “Inhibitors of human immunodeficiency virus replication” (priority 2013, dated 2018)
Where two headings read alike, the source gives them in different places.

Test system: recombinant NL4-3 virus (Renilla luciferase) in MT-2 cells
Experiment: HIV cell culture assay (antiviral activity, luciferase readout in infected MT-2 cells)
Format: cell-based
Outline: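 EC50 derived via median-effect equation from luciferase activity in MT-2 cells after 4–5 day infection, compound serially diluted. Virus: recombinant NL4-3 with Renilla luciferase replacing part of nef, made in 293T cells.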

[1] = Renilla, NL43, read-out: Activity, antiviral activity class, recombinant NL4-3 Renilla luciferase virus in MT-2 cells
[2] = Renilla, NL43, recombinant NL4-3 Renilla luciferase virus in MT-2 cells

Row | Molecule | EC50 [1] [nM] | EC50 [2] [nM] | EC50 (recombinant NL4-3 Renilla luciferase virus in MT-2 cells, read-out: EC50) [nM]
1 | CCN(C(=O)[C@H](Cc1ccccc1)NC(=O)NS(=O)(=O)c1cccc(-c2ccnn2C)c1)c1ccc(OC)cc1 [Example 152, (S)—N-ethyl-N-(4-methoxyphenyl)-2-(3-((3-(1-methyl-1H-pyrazol-5-yl)phenyl)sulfonyl)ureido)-3-phenylpropanamide] | < 100 | 90 | 
2 | CN(C(=O)[C@H](Cc1ccccc1)NC(=O)NS(=O)(=O)c1ccccc1F)c1ccc2c(c1)OCO2 [Example 9, (S)—N-(benzo[d][1,3]dioxol-5-yl)-2-(3-((2-fluorophenyl)sulfonyl)ureido)-N-methyl-3-phenylpropanamide] | < 100 |  | 
3 | COc1cccc(N(C)C(=O)[C@H](Cc2ccccc2)NC(=O)NS(=O)(=O)c2ccccc2C)c1 [Example 166, (S)—N-(3-methoxyphenyl)-N-methyl-3-phenyl-2-(3-(o-tolylsulfonyl)ureido)propanamide] | 100 to 1000 | 240 | 
4 | CCN(C(=O)[C@H](Cc1ccccc1)NC(=O)NS(=O)(=O)c1c(F)cccc1F)c1ccc(OC)cc1 [Example 118, (S)-2-(3-((2,6-difluorophenyl)sulfonyl)ureido)-N-ethyl-N-(4-methoxyphenyl)-3-phenylpropanamide] | < 100 | 40 | 
5 | CCN(C(=O)[C@H](Cc1ccccc1)NC(=O)NS(=O)(=O)c1ccccc1C)c1ccc2nc(C)ccc2c1 [Example CA-83, (S)—N-ethyl-N-(2-methylquinolin-6-yl)-3-phenyl-2-(3-(o-tolylsulfonyl)ureido)propanamide] | < 100 |  | 
6 | CN(C(=O)[C@H](Cc1ccccc1)NC(=O)NS(=O)(=O)c1ccccc1Br)c1ccc2c(c1)OCO2 [Example 29, (S)—N-(benzo[d][1,3]dioxol-5-yl)-2-(3-((2-bromophenyl)sulfonyl)ureido)-N-methyl-3-phenylpropanamide] | < 100 |  | 
7 | Cc1ccccc1S(=O)(=O)NC(=O)N[C@@H](Cc1cc(F)cc(F)c1)C(=O)N(C)c1cccc(Cl)c1 [Example CA-111, (S)—N-(3-chlorophenyl)-3-(3,5-difluorophenyl)-N-methyl-2-(3-(o-tolylsulfonyl)ureido)propanamide] | 1000 to 10000 |  | 
8 | Cc1ccccc1S(=O)(=O)NC(=O)N[C@@H](Cc1ccccc1)C(=O)N(C)c1cccc2[nH]cnc12 [Example CA-101, (S)—N-(1H-benzo[d]imidazol-4-yl)-N-methyl-3-phenyl-2-(3-(o-tolylsulfonyl)ureido)propanamide] | 1000 to 10000 |  | 
9 | CN(C(=O)[C@H](Cc1ccccc1)NC(=O)NS(=O)(=O)CCCc1ccccc1)c1ccc2c(c1)OCO2 [Example 25, (S)—N-(benzo[d][1,3]dioxol-5-yl)-N-methyl-3-phenyl-2-(3-((3-phenylpropyl)sulfonyl)ureido)propanamide] | 100 to 1000 | 930 | 
10 | CN(C(=O)[C@H](Cc1ccccc1)NC(=O)NS(=O)(=O)c1ccccc1-c1cccnc1)c1ccc2c(c1)OCO2 [Example 128, (S)—N-(benzo[d][1,3]dioxol-5-yl)-N-methyl-3-phenyl-2-(3-((2-(pyridin-3-yl)phenyl)sulfonyl)ureido)propanamide] | 1000 to 10000 |  | 
11 | COc1ccc2c(c1)CCCN2C(=O)[C@H](Cc1ccccc1)NC(=O)NS(=O)(=O)c1ccccc1C [Example 171, (S)—N-((1-(6-methoxy-3,4-dihydroquinolin-1(2H)-yl)-1-oxo-3-phenylpropan-2-yl)carbamoyl)-2-methylbenzenesulfonamide] | 100 to 1000 |  | 
12 | Cc1ccccc1S(=O)(=O)NC(=O)N[C@H](C(=O)N(C)c1ccc2c(c1)OCO2)[C@@H](C)c1ccccc1 [Example 65, (2S,3S)—N-(benzo[d][1,3]dioxol-5-yl)-N-methyl-3-phenyl-2-(3-(o-tolylsulfonyl)ureido)butanamide] | 1000 to 10000 | 6830 | 
13 | Cc1ccccc1S(=O)(=O)NC(=O)N[C@@H](Cc1ccccc1)C(=O)N(C)c1ccc(OCC(N)=O)cc1 [Example 217, (S)—N-(4-(2-amino-2-oxoethoxy)phenyl)-N-methyl-3-phenyl-2-(3-(o-tolylsulfonyl)ureido)propanamide] | 100 to 1000 |  | 
14 | CN(C(=O)[C@H](Cc1ccccc1)NC(=O)NS(=O)(=O)Cc1ccccc1Cl)c1ccc2c(c1)OCO2 [Example 101, (S)—N-(benzo[d][1,3]dioxol-5-yl)-2-(3-((2-chlorobenzyl)sulfonyl)ureido)-N-methyl-3-phenylpropanamide] | 100 to 1000 |  | 
15 | CCN(C(=O)[C@H](Cc1ccccc1)NC(=O)NS(=O)(=O)c1ccccc1C)c1ccc(Cl)cc1 [Example 181, (S)—N-(4-chlorophenyl)-N-ethyl-3-phenyl-2-(3-(o-tolylsulfonyl)ureido)propanamide] | 100 to 1000 |  | 
16 | CCOc1ccc(N(C)C(=O)[C@H](Cc2ccccc2)NC(=O)NS(=O)(=O)c2ccccc2C)cc1 [Example CA-84, (S)—N-(4-ethoxyphenyl)-N-methyl-3-phenyl-2-(3-(o-tolylsulfonyl)ureido)propanamide] | < 100 |  | 
17 | Cc1ccccc1S(=O)(=O)NC(=O)N[C@@H](Cc1ccccc1)C(=O)N(C)c1cccc(F)c1 [Example 168, (S)—N-(3-fluorophenyl)-N-methyl-3-phenyl-2-(3-(o-tolylsulfonyl)ureido)propanamide] | 100 to 1000 |  | 

Row | Molecule | EC50 [1] [nM] | EC50 [2] [nM] | EC50 (recombinant NL4-3 Renilla luciferase virus in MT-2 cells, read-out: EC50) [nM]
18 | Cc1ccccc1S(=O)(=O)NC(=O)N[C@@H](Cc1ccc(C(F)(F)F)cc1)C(=O)N(C)c1ccc2c(c1)OCO2 [Example 61, (S)—N-(benzo[d][1,3]dioxol-5-yl)-N-methyl-2-(3-(o-tolylsulfonyl)ureido)-3-(4-(trifluoromethyl)phenyl)propanamide] | 1000 to 10000 | 6620 | 
19 | Cc1ccccc1S(=O)(=O)NC(=O)N[C@@H](Cc1ccccc1)C(=O)N(C)C1CCCCC1 [Example 179, (S)—N-cyclohexyl-N-methyl-3-phenyl-2-(3-(o-tolylsulfonyl)ureido)propanamide] | 1000 to 10000 |  | 
20 | CN(C(=O)[C@H](Cc1ccccc1)NC(=O)NS(=O)(=O)c1ccccc1)c1ccc2c(c1)OC(F)(F)O2 [Example 36, (S)—N-(2,2-difluorobenzo[d][1,3]dioxol-5-yl)-N-methyl-3-phenyl-2-(3-(phenylsulfonyl)ureido)propanamide] | 1000 to 10000 |  | 
21 | COc1ccc(N(C)C(=O)[C@H](Cc2ccccc2)NC(=O)NS(=O)(=O)c2ccccc2C)c(C)c1 [Example JB-83, (S)—N-(4-methoxy-2-methylphenyl)-N-methyl-3-phenyl-2-(3-(o-tolylsulfonyl)ureido)propanamide] | 100 to 1000 |  | 
22 | (S)—N-((1-(3-methoxyazetidin-1-yl)-1-oxo-3-phenylpropan-2-yl)carbamoyl)-2-methylbenzenesulfonamide [Example 190] |  |  | > 100000
23 | Cc1ccccc1S(=O)(=O)NC(=O)N[C@@H](Cc1cc(F)cc(F)c1)C(=O)N(C)c1ccc(F)c(C(N)=O)c1 [Example CA-102, (S)-5-(3-(3,5-difluorophenyl)-N-methyl-2-(3-(o-tolylsulfonyl)ureido)propanamido)-2-fluorobenzamide] | 1000 to 10000 | 2580 | 
24 | C=CCOc1ccc(C[C@H](NC(=O)NS(=O)(=O)c2ccccc2C)C(=O)N(C)c2ccc3c(c2)OCO3)cc1 [Example 58, (S)-3-(4-(allyloxy)phenyl)-N-(benzo[d][1,3]dioxol-5-yl)-N-methyl-2-(3-(o-tolylsulfonyl)ureido)propanamide] | 1000 to 10000 |  | 
25 | Cc1ccccc1S(=O)(=O)NC(=O)N[C@@H](Cc1ccccc1)C(=O)N(C)c1ccc2c(c1)OC(F)(F)O2 [Example 37, (S)—N-(2,2-difluorobenzo[d][1,3]dioxol-5-yl)-N-methyl-3-phenyl-2-(3-(o-tolylsulfonyl)ureido)propanamide] | 100 to 1000 |  | 
26 | COc1ccc(N(CC(C)C)C(=O)[C@H](Cc2ccccc2)NC(=O)NS(=O)(=O)c2ccccc2C)cc1 [Example ZY-6, (S)—N-isobutyl-N-(4-methoxyphenyl)-3-phenyl-2-(3-(o-tolylsulfonyl)ureido)propanamide] | 1000 to 10000 |  | 
27 | CN(C(=O)[C@H](Cc1ccccc1)NC(=O)NS(=O)(=O)c1ccccc1)c1ccc2c(c1)OCO2 [Example 1, (S)—N-(benzo[d][1,3]dioxol-5-yl)-N-methyl-3-phenyl-2-(3-(phenylsulfonyl)ureido)propanamide] | 100 to 1000 | 260 | 
28 | Cc1ccccc1S(=O)(=O)NC(=O)N[C@@H](Cc1ccccc1)C(=O)N1CCc2cc(S(=O)(=O)N(C)C)ccc21 [Example 185, (S)—N,N-dimethyl-1-(3-phenyl-2-(3-(o-tolylsulfonyl)ureido)propanoyl)indoline-5-sulfonamide] | 1000 to 10000 |  | 
29 | CCc1ccccc1S(=O)(=O)NC(=O)N[C@@H](Cc1ccccc1)C(=O)N(C)c1ccc2c(c1)OCO2 [Example 146, (S)—N-(benzo[d][1,3]dioxol-5-yl)-2-(3-((2-ethylphenyl)sulfonyl)ureido)-N-methyl-3-phenylpropanamide] | < 100 |  | 
30 | Cc1ccc(S(=O)(=O)NC(=O)N[C@@H](Cc2ccccc2)C(=O)N(C)c2ccc3c(c2)OCO3)s1 [Example 27, (S)—N-(benzo[d][1,3]dioxol-5-yl)-N-methyl-2-(3-((5-methylthiophen-2-yl)sulfonyl)ureido)-3-phenylpropanamide] | 100 to 1000 |  | 
31 | CN(C(=O)[C@H](Cc1ccccc1)NC(=O)NS(=O)(=O)c1ccccc1Cl)c1ccc2c(c1)OC(F)(F)O2 [Example 38, (S)-2-(3-((2-chlorophenyl)sulfonyl)ureido)-N-(2,2-difluorobenzo[d][1,3]dioxol-5-yl)-N-methyl-3-phenylpropanamide] | 100 to 1000 | 310 | 
32 | Cc1ccccc1S(=O)(=O)NC(=O)N[C@@H](Cc1cc(F)cc(F)c1)C(=O)N(C)c1ccccc1F [Example CA-107, (S)-3-(3,5-difluorophenyl)-N-(2-fluorophenyl)-N-methyl-2-(3-(o-tolylsulfonyl)ureido)propanamide] | 1000 to 10000 |  | 
33 | Cc1ccccc1S(=O)(=O)NC(=O)N[C@@H](Cc1ccc(Cl)cc1)C(=O)N(C)c1ccc2c(c1)OCO2 [Example 51, (S)—N-(benzo[d][1,3]dioxol-5-yl)-3-(4-chlorophenyl)-N-methyl-2-(3-(o-tolylsulfonyl)ureido)propanamide] | 100 to 1000 | 490 | 
